“Also recorded” adds a separate entry of the source. Where two headings read alike, the source gives them in different places.
Experiments:
[1] = Plasma pharmacokinetics of BMS-188797 in patients, cycle 1 (HPLC, noncompartmental analysis); assay type: in vivo, human; conditions: for AUC(0-inf) / Cmax / half-life: human, plasma, intravenous
Procedure: In all, 5 ml of blood were collected for pharmacokinectic analysis using Becton-Dickenson Vacutainers® that contained K3EDTA as the anticoagulant. Blood sampling for pharmacokinetics analysis was performed in all patients during cycle 1. Serial blood samples were drawn at the following times relative to the start of the 1 h infusion of BMS-188797: predose, 30 min, 58 min (drawn prior to the end of the infusion), and 1.25, 1.5, 2, 2.5, 3, 4, 5, 6, 8, 24, 48 and 72 h. Within 1 h of collection, the plasma was separated by centrifugation at 1000 rpm for 15 min at 4°C. Plasma was stored at or below […] until analysis. Plasma samples were analysed for BMS-188797 concentrations by HPLC. After the addition of internal standard, BMS-183061, to 1.0 ml of plasma, the sample was loaded onto a CN-U solid-phase extraction column. The compounds were eluted with 0.1% formic acid in methanol, the eluate evaporated to dryness, and the residue reconstituted. Chromatographic separation of the compounds was achieved on a YMC-ODS-AQ, 4.6 × 150 mm, 3 μm column using a mobile phase containing 30% water in acetonitrile. Detection was by ultraviolet absorbance at 228 nm. The standard curve range was 2–1000 ng ml^−1. The coefficient of variation (CV) for the between- and within-run precision for analytical quality control samples were no greater than 3.0 and 7.1%, respectively
Estimates of pharmacokinetic parameters for BMS-188797 were derived from individual concentration–time data sets by noncompartmental analyses ([Gibaldi and Perrier, 1982]). The values of the maximum plasma concentration (Cmax) were recorded directly from experimental observations. The area under the plasma concentration vs. time curve from time zero to the time of the last measurable concentration T (AUC0-T) was calculated using a combination of linear and log trapezoidal summations. The first-order rate constant of decline of BMS-188797 concentrations in the terminal phase of the plasma concentration–time data set, λ, was estimated by log-linear regression, using no weighting factor, of at least three data points yielding a minimum mean square error. The absolute value of λ was used to estimate the apparent terminal elimination half-life, t1/2. The last measurable concentration and the rate constant, λ, were used to extrapolate the AUC0-T to estimate AUC0-∞ (the area under the curve from time zero to infinity). The total body clearance (Cl) was calculated by dividing the dose by AUC0-∞. The volume of distribution at steady state (VSS) was calculated using standard noncompartmental methods.

[2] = test system: patients with advanced solid tumours; test: Phase I dose escalation of BMS-188797 plus cisplatin: DLT, MTD and toxicity (NCI CTC v2.0); assay type: in vivo
Procedure: This study was an open-label, single-centre, phase I, dose-escalation trial with the primary objective to determine the MTD and DLT and to recommend a future phase II dose. Secondary objectives were safety, antitumour activity and pharmacokinetics of the experimental drug. The study was carried out with ethical committee approval.
BMS-188797 administered by a 1-h infusion was followed by a 1-h infusion of cisplatin starting 30 min after the end of the BMS-188797 infusion; both drugs were given on day 1, every 3 weeks. Six treatment cycles were planned. Treatment had to be discontinued upon progression or occurance of intolerable toxicity.
If no further DLT occurred, the next DL was opened. If the total number of patients with DLT at any DL was two or higher, then dose escalation was terminated and additional patients were enrolled at the next lower DL. The MTD was defined as the DL at which none of the three or one of six patients experienced a DLT. Once the MTD had been established, accrual at the respective DL was expanded to determine its suitability as the recommended phase II dose.
The DLT was defined as first-course toxicity with ANC <500 μl^−1 for ⩾5 days, or febrile neutropenia (fever >38.5°C and ANC <1000 μl^−1), or thrombocytopenia <25,000 μl^–1; or bleeding requiring platelet transfusion, or any other drug-related grade ⩾3 toxicity except fatigue/asthenia, transient arthralgia/myalgia, or grade 3 AST/ALT elevation (resolving to baseline within 3 weeks). Furthermore, delayed recovery from toxicity related to treatment with BMS-188797 and cisplatin that delayed scheduled retreatment for 21 days or longer was regarded as DLT.
(§1) Toxicity was evaluated according to NCI CTC (Vers. 2.0; revised April 30, 1999) in all patients receiving study drug. Tumour measurement was performed in patients with measurable disease after every other cycle; response was assessed according to World Health Organization (WHO) criteria. Ascites or serum tumour marker elevations were not considered in the assessment of response status except in case of progressive disease or complete remission when both had to be normalised.

[3] = test system: patients with advanced solid tumours; test: Antitumour activity, response by WHO criteria; assay type: in vivo, human
Procedure: as §1

[4] = test system: patients with advanced malignancies; design: method as in Sullivan et al, 2000; conditions: single agent, 1-h infusion every 3 weeks; ref Sullivan et al, 2000; cited from earlier work
[5] = test system: patients with advanced malignancies; design: method as in Advani et al (2003); conditions: single agent, weekly administration; ref Advani et al (2003); cited from earlier work
patients = test system: patients; design: method as in Sullivan et al, 2001; conditions: ref Sullivan et al, 2001, cited from earlier work
[6] = test system: patients with advanced malignancies; design: method as in Advani et al, 2002; conditions: weekly BMS-188797 with carboplatin, DLs AUC 6/33 mg m−2 and AUC 5/43 mg m−2, preliminary data; ref Advani et al, 2002; cited from earlier work
[7] = test system: human tumour cell lines highly resistant to paclitaxel; design: method as in Rose et al, 2001; conditions: ref Rose et al, 2001, cited from earlier work
[8] = test system: paclitaxel-resistant tumour models in mice; design: method as in Rose et al, 2001; conditions: ref Rose et al, 2001; cited from earlier work
[9] = 80 mg m−2 1-h infusion with cisplatin 75 mg m−2, cycle 1, n=3, mean±s.d.
[10] = 110 mg m−2 1-h infusion with cisplatin 75 mg m−2, cycle 1, n=12, mean±s.d.
[11] = 150 mg m−2 1-h infusion with cisplatin 75 mg m−2, cycle 1, n=1
[12] = mean±s.d. of the three dose groups (80, 110, 150 mg m−2), cycle 1
[13] = 1-h infusion every 3 weeks combined with cisplatin 75 mg m−2

## COC(=O)O[C@@]12CO[C@@H]1C[C@H](O)[C@@]1(C)C(=O)[C@H](OC(C)=O)C3=C(C)[C@@H](OC(=O)[C@H](O)[C@@H](NC(=O)c4ccccc4)c4ccccc4)C[C@@](O)([C@@H](OC(=O)c4ccccc4)[C@H]21)C3(C)C [BMS-188797, 4-desacetyl-4-methyl carbonate derivate of paclitaxel]
[1]; [9]
  Cl: 333±14 (317, 344) ml min−1 m−2
  VSS: 331±135 (214, 478) l m−2
  AUC(0-inf): 4000 ± 184 ng·h/mL
  Cmax: 2650 ± 690 ng/mL
[1]; 110 mg m−2
  interpatient coefficient of variation of CL: 19%
  interpatient coefficient of variation of VSS: 35%
  interpatient coefficient of variation of t1/2: 24%
[1]; [10]
  Cl: 322±60 (234, 437) ml min−1 m−2
  VSS: 244±86 (115, 395) l m−2
  AUC(0-inf): 5870 ± 1060 ng·h/mL
  Cmax: 3370 ± 591 ng/mL
[1]; 110 mg m−2 DL
  range of AUC0-∞ values: 1.8 fold
[1]; [11]
  Cl: 206 NA ml min−1 m−2
  VSS: 209 NA l m−2
  AUC(0-inf): 12200 ng·h/mL
  Cmax: 5770 ng/mL
[1]; 80-150 mg m−2 with cisplatin 75 mg m−2
  dose dependence (linearity) of pharmacokinetics: appeared linear through the 110 mg m^−2, but not through the 150 mg m^−2 DL; also recorded: appeared independent of dose through the 110 mg m^−2 DL, but not through the 150 mg m^−2 DL; also recorded: appeared linear through a DL of 110 mg m^−2
[1]; 80 mg m−2 1-h infusion with cisplatin 75 mg m−2, cycle 1, n=3, mean±s.d., read-out: t1/2 (converted)
  half-life: 1860 ± 702 min
[1]; 110 mg m−2 1-h infusion with cisplatin 75 mg m−2, cycle 1, n=12, mean±s.d., read-out: t1/2 (converted)
  half-life: 1840 ± 450 min
[1]; 150 mg m−2 1-h infusion with cisplatin 75 mg m−2, cycle 1, n=1, read-out: t1/2 (converted)
  half-life: 1880 min
[1]; 150 mg, mean±s.d. of the three dose groups (80, 110, 150 mg m−2), cycle 1, read-out: terminal half-life (converted)
  half-life: 1850 ± 462 min
[1]; [12]
  clearance: 317±60 ml min^−1 m^−2
  volume of distribution at steady state: 258±96 l m^−2
[1]; n=1 at 150 mg m−2
  clearance in the 150 mg m−2 patient relative to patients at 80 or 110 mg m−2: approximately one-third lower
[2]; 110 mg m−2 DL, with steroid and H1/H2-antagonist premedication
  Mild hypersensitivity reactions (grade 2 rash and dyspnea), patients affected: only one patient
[2]; [13]
  maximum tolerated dose (MTD): 110 mg m^−2
  recommended phase II dose: 110 mg m^−2
[2]; DL 1, 80 mg m−2
  median duration of neutropenia: 4 days
  median time to the neutrophil nadir: 12 days
[2]; DL 2, 110 mg m−2
  median duration of neutropenia: 8 days
  median time to the neutrophil nadir: 14 days
[2]; DL 2, 110 mg m−2 with cisplatin 75 mg m−2
  MTD (dose level designated): MTD
[2]; DL 3, 150 mg m−2
  median duration of neutropenia: 4 days
  median time to the neutrophil nadir: 8 days
[2]; all dose levels, 16 patients
  alopecia, patients affected: All patients but one
[3]; DL 1, 80 mg m−2 with cisplatin, ovarian cancer, NSCLC, CUP
  stable disease as best response, patients: three patients
[3]; DL 2, 110 mg m−2 with cisplatin, lung cancer (two), ovarian sarcoma, CUP
  progressive disease, patients: Four patients
[3]; DL 2, 110 mg m−2 with cisplatin, ovarian (two) and cervical cancer (one)
  complete remissions: three complete remissions
[3]; DL 2, 110 mg m−2 with cisplatin, ovarian cancer
  partial response: One partial response
[3]; DL 2, 110 mg m−2 with cisplatin, urachus carcinoma and NSCLC
  stable disease, patients: two patients
[3]; DL 3, 150 mg m−2 with cisplatin, CUP
  best response of the only patient treated: disease progression
[3]; all dose levels, 16 patients
  objective response, patients: four patients
[4]
  maximum tolerated dose (MTD): 175 mg m^−2
[5]
  MTD: 50 mg m^−2
patients; with carboplatin AUC 5, every 3 weeks
  MTD: 125 mg m^−2
patients; with carboplatin, every 3 weeks
  Dose-limiting toxicities (DLT): febrile neutropenia and slow recovery from neutropenia
[6]
  dose-limiting toxicities: prolonged grade 4 neutropenia and delayed haematological recovery
[7]; cell lines resistant through P-glycoprotein overexpression or beta-tubulin mutations
  antiproliferative activity: potent antiproliferative activity
[7]
  cell cycle effect: G2/M cell cycle arrest
[8]
  in vivo activity: potent in vivo activity

Reference: article PMC2361071, “A phase I and pharmacokinetic study of novel taxane BMS-188797 and cisplatin in patients with advanced solid tumours” (British Journal of Cancer, 2005)
